The text below walks through data of ChEMBL document CHEMBL5579800, “Further structural optimization and SAR study of sungsanpin derivatives as cell-invasion inhibitors” (Bioorg Med Chem Lett, 2024).

Calls of active or inactive are those of the source. Where a SMILES comes first, the peptide text is derived from it.

In series [1] the test system is A549. In words: Cytotoxicity against human A549 cells assessed as cell viability upto 100 uM by CCK8 assay. The note with it: a549, 100 µM. The series is classed as toxicity, cell-based. In general terms: Tetrazolium assays rely on reduction of a dye to a coloured formazan, in cell work by metabolically active cells.
Series [2] has as its system A549. Nature of the series: Upregulation of TIMP-2 mRNA level in human A549 cells at 100 uM by qPCR analysis. Type of series: functional, cell-based. On the technique in general: Quantitative PCR measures a nucleic acid by following its amplification.
For series [3], the system named is A549. Nature of the series: Inhibition of cell invasion in human A549 cells. Type of series: functional, cell-based. The note with it: dose 25-100 µM.
Series [4] can be described thus: Stability in human serum assessed as half life by HPLC analysis. Type of series: ADME, cell-free.
For series [5], the system named is A549. Nature of the series: Inhibition of cell invasion in human A549 cells by microscopy. The series is classed as functional, cell-based. The note with it: dose 25-100 µM.
For series [6], the system named is A549. In words: Upregulation of TIMP-1 mRNA level in human A549 cells at 100 uM by qPCR analysis. Type of series: functional, cell-based.
Series [7] can be described thus: Stability in human serum assessed as compound remaining measured after 24 hrs by HPLC analysis. The series is classed as ADME, cell-free. The note with it: read-out: Stability.
In series [8] the test system is A549. Nature of the series: Upregulation of TIMP-2 level in human A549 cells at 100 uM by Western blot analysis. Type of series: functional, cell-based.
Series [9] relates to A549. In words: Upregulation of TIMP-1 level in human A549 cells at 100 uM by Western blot analysis. Type of series: functional, cell-based. On the technique in general: Immunoblotting shows a protein as a band on a membrane.
Series [10] deals with A549. In words: Inhibition of cell invasion in human A549 cells at 100 uM. Type of series: functional, cell-based.
For series [11], the system named is A549. In words: Inhibition of cell invasion in human A549 cells at 100 uM by microscopy. The series is classed as functional, cell-based.
Series [12] has as its system A549. In words: Downregulation of MMP-9 level in human A549 cells at 100 uM by Western blot analysis. The series is classed as functional, cell-based.
The subject of series [13] is A549. In words: Downregulation of MMP-2 level in human A549 cells at 100 uM by Western blot analysis. The series is classed as functional, cell-based.
In series [14] the test system is A549. Nature of the series: Inhibition of cell invasion in human A549 cells at 25 to 100 uM. The series is classed as functional, cell-based. The note with it: dose 25-100 µM.

For `CC(C)C[C@@H]1NC(=O)[C@H](C)NC(=O)[C@H](Cc2ccccc2)NC(=O)[C@H](CO)NC(=O)[C@H](CC(=O)O)NC(=O)[C@H](CC(C)C)NC(=O)[C@H](Cc2c[nH]c3ccccc23)NC(=O)[C@H](CO)NC1=O` (cyclo(ALSWLDSF)), the Activity result in series [1] is “Non-Toxic”. The result in series [2], in [6] and in series [9] was Active. For the same molecule, the inhibition entry in series [3] and in series [5] was “Dose-Dependent Effect” throughout. Besides, in series [4], the half-life (as a rule, the time needed for the level to fall by half in the phase considered) was over 24 h. Moreover, the remaining at 24 h in series [7] was over 80%. Besides, the result in series [8] was inactive.
On to `CC(C)C[C@@H]1NC(=O)CNC(=O)[C@H](Cc2ccccc2)NC(=O)[C@H](CO)NC(=O)[C@H](CC(=O)O)NC(=O)[C@H](CC(C)C)NC(=O)[C@H](Cc2c[nH]c3ccccc23)NC(=O)[C@H](CO)NC1=O` (cyclo(DSFGLSWL)), for which the Activity result in series [1] is on record as “Non-Toxic”.
On the same count and under the same terms, the value for `CC(C)C[C@@H]1NC(=O)[C@H](CCCCN)NC(=O)[C@H](Cc2ccccc2)NC(=O)[C@H](CO)NC(=O)[C@H](CC(=O)O)NC(=O)[C@H](CC(C)C)NC(=O)[C@H](Cc2c[nH]c3ccccc23)NC(=O)[C@H](CO)NC1=O` (cyclo(DSFKLSWL)) was “Non-Toxic”.
As to Ac-DSFGLSWL-NH2, the Activity entry in series [1] is reported as “Non-Toxic”. Besides, the inhibition result in series [10] is “inactive”.
For H-ASFGLSWL-OH, the Activity result in series [1] is “Non-Toxic”. In addition, the inhibition result in series [10] was “inactive”.
For H-DAFGLSWL-OH the same measures were “Non-Toxic” and “inactive”.
H-DSAGLSWL-OH: the Activity result in [1] is “Non-Toxic”.
As for H-DSFALSWL-OH, the Activity result in series [1] is on record as “Non-Toxic”. Besides, the inhibition entry in series [11] and in [10] was “Active” each time. The outcome in series [2], in series [12], in [6] and in [9] was Active. In addition, the inhibition result in [3] was “Dose-Dependent Effect”. For the same molecule, the remaining at 24 h in series [7] was about 23%. In addition, the outcome in [8] was inactive.
On to H-DSFDLSWL-OH, for which the Activity result in series [1] is “Non-Toxic”.
Take H-DSFGASWL-OH: in series [1], the Activity result is reported as “Non-Toxic”. Moreover, in series [10], the inhibition result is “inactive”.
For the molecule H-DSFGLAWL-OH, the Activity result in series [1] is recorded as “Non-Toxic”.
Consider H-DSFGLSAL-OH, for which the Activity result in series [1] was “Non-Toxic”. Besides, in series [10], the inhibition result is “inactive”.
For H-DSFGLSWA-OH the same measures were “Non-Toxic” and “inactive”.
In the case of H-DSFGLSWL-OH, the Activity entry in [1] is on record as “Non-Toxic”.
Consider H-DSFKLSWL-OH, for which the Activity result in series [1] is recorded as “Non-Toxic”. In addition, the outcome in series [2] and in series [8] was inactive. Besides, the inhibition result in series [3] is “Dose-Dependent Effect”. Also, the outcome in series [6], in [13] and in series [9] was Active.
Regarding H-DSFLLSWL-OH, the inhibition result in series [14] was “inactive”. Further, the Activity entry in series [1] was “Non-Toxic”.
For the molecule H-DSFRLSWL-OH, the Activity entry in series [1] was “Non-Toxic”.
With H-DSFVLSWL-OH, the inhibition result in series [14] was “Active”. In series [1], the Activity entry was “Non-Toxic”. In addition, the outcome in [2] and in series [8] was inactive. In addition, the outcome in [6], in series [13] and in [9] was Active.
